Laboratory results: patent US9499570B2, “Boron containing small molecules” (priority 2010, dated 2016)
“Also recorded” adds a separate entry of the source.

System: Schistosoma mansoni schistosomula
Test: Schistosoma mansoni schistosomula phenotype screen in vitro
Conditions: First Set
Text: Puerto Rican isolates of S. mansoni using Biomphalaria glabrata snails and golden hamsters as intermediate and definitive hosts, respectively, were maintained and handled in the University of California-San Francisco Sandler Center for Tropical Medicine. Patent B. glabrata snails (6-8 weeks after exposure to 5-10 infectious miracidia) were induced to shed infective larvae (cercariae) under light stimulus into the surrounding water. Cercariae were washed in rounds of ice-cold water and concentrated through and over sieves of varying pore sizes. They were then mechanically sheared (separation of heads from tails) as described in Colley D G, et al. Exp Parasitol 1974, 35:44-51, in ice-cold Incomplete Medium 169 (as described in Basch P F. J Parasitol 1981, 67:179-185, minus FBS and antibiotics) by passing 15 times through a double headed 22-gauge syringe needle connected to two 10 mL syringes. The resulting cercarial heads (schistosomula) were separated from their tails by swirling in a petri dish. Concentrated schistosomula were added to a sterile 1.5 mL centrifuge tube and allowed to settle over ice. Schistosomula were transferred to a sterile environment and washed 4 times in Incomplete Medium 169 prior to plating.
Two sets of screening were performed. In the first set, compounds were screened against schistosomula and observations were made at 24 hours, 2 days, 3 days, 4 days, and 6 days. In the second set, compounds were screened against schistosomula with observations at 24 hours, 2 days, 3 days, and 4 days and adult worms at 7 hours, 24 hours, 4 days, and 6 days.
Plates contain 200 schistosomula/well in […] complete Basch medium and were maintained at 37° C. in a 5% CO2 atmosphere. All compounds were tested in duplicate with at least two experimental replicates. Compounds and control compounds were added to the plates using the Biomek FXp using 96-well disposable tips. Final concentration of DMSO in each well was 0.5%.
A semi-quantitative and controlled nomenclature for phenotypes that can arise as a result of compound insult to both schistosomula and adults was utilized (Abdulla M H, et al., PLoS Negl Trop Dis 2009, 3:e478). Phenotypes were recorded by visual inspection and on a flexible time basis but at least at 24 h and 4 day time-points in the case of large scale screening. […] To help eliminate bias, two screen analysts scored phenotypes ‘blind’ both to knowledge of the contents of each screening plate and the phenotypes scored by his/her colleague. Upon completing their individual assessments, each analyst's ‘hit sheet’ was then compared to derive a ‘consensus hit sheet’. Discrepancies in analysts' hit sheets were re-evaluated under the microscope to eventually make a consensus hit call.
Hyper-coiled and coiled represent a verbal description of the visual phenotype as compared to the DMSO control. The + and ++ and +++ means more of the phenotype which preceded it. The − means less of the phenotype which preceded it. Results

Structure (SMILES)	Schistosomula phenotype day 3	Schistosomula phenotype day 6	Schistosomula phenotype day 4	further results
COCCOc1nccc(Oc2ccc3c(c2)COB3O)c1C#N [4-(1-Hydroxy-1,3-dihydro-benzo[c][1,2]oxaborol-5-yloxy)-2-(2-methoxyethoxy)-nicotinonitrile]	O+ and some and partial D	O+ R and Partial D (Partial D=partial killing of worm population)		Schistosomula phenotype 24 h: R (R=round) and O+
CCOC(=O)c1ccc(Oc2ccc3c(c2)COB3O)c(Oc2cc(C#N)ccn2)c1 [5-[4-Ethoxycarbonyl-2-(4-cyanopyridin-2-yloxy)phenoxy]-1,3-dihydro-1-hydroxy-2,1-benzoxaborole]		R, O,; also recorded: Partial D (Partial D=partial killing of worm population)	O, (O=overactive) and some and deg-m	Schistosomula phenotype day 2: O, (O=overactive); also recorded: deg-m
COCCNc1nc(Oc2ccc3c(c2)COB3O)ccc1C#N [6-(1-Hydroxy-1,3-dihydro-benzo[c][1,2]oxaborol-5-yloxy)-2-(2-methoxy-ethylamino)-nicotinonitrile]		R O and some and partial D		
CC(C)Oc1nc(Oc2ccc3c(c2)COB3O)ccc1C#N [6-(1-Hydroxy-1,3-dihydro-benzo[c][1,2]oxaborol-5-yloxy)-2-isopropoxy-nicotinonitrile]	O+ and Deg-M (Deg-M=worms in morphological disarray but still living)	R O+ and Partial D (Partial D=partial killing of worm population)		
CCCOC(=O)c1ccc(Oc2ccc3c(c2)COB3O)nc1 [n-Propyl 6-(1-hydroxy-1,3-dihydrobenzo[c][1,2]oxaborol-5-yloxy)nicotinate]		O, R,; also recorded: Partial D (Partial D=partial killing of worm population)		Schistosomula phenotype day 2: O+ and (shrunk)
N#Cc1ccc(Oc2ccc3c(c2)COB3O)nc1NCCOCc1ccccc1 [2-(2-Benzyloxy-ethylamino)-6-(1-hydroxy-1,3-dihydro-benzo[c][1,2]oxaborol-5-yloxy)-nicotinonitrile]	O+ and Deg-M (Deg-M=worms in morphological disarray but still living)	R O+ and Partial D (Partial D=partial killing of worm population)		Schistosomula phenotype 24 h: O+ and some and deg-M
N#Cc1ccc(Oc2ccc3c(c2)COB3O)c(OC2CCCC2)c1 [3-(Cyclopentyloxy)-4-(1-hydroxy-1,3-dihydrobenzo[c][1,2]oxaborol-5-yloxy)benzonitrile]	O+ and Partial D (Partial D=partial killing of worm population)	R deg- and M D		Schistosomula phenotype 24 h: O++ and deg-M
CCCOc1nc(Oc2ccc3c(c2)COB3O)ccc1C#N [6-(1-Hydroxy-1,3-dihydro-benzo[c][1,2]oxaborol-5-yloxy)-2-propoxy-nicotinonitrile]	O+ and Deg-M (Deg-M=worms in morphological disarray but still living)	R O and partial D		
N#Cc1ccc(Oc2ccc3c(c2)COB3O)nc1OCC(F)(F)F [6-(1-Hydroxy-1,3-dihydro-benzo[c][1,2]oxaborol-5-yloxy)-2-(2,2,2-trifluoro-ethoxy)-nicotinonitrile]		O+ R and Partial D (Partial D=partial killing of worm population)		
CCOc1nc(Oc2ccc3c(c2)COB3O)ccc1C#N [2-Ethoxy-6-(1-hydroxy-1,3-dihydro-benzo[c][1,2]oxaborol-5-yloxy)-nicotinonitrile]	O+ and partial D	O+ R and Partial D (Partial D=partial killing of worm population)		
CC(C)OC(=O)c1ccc(Oc2ccc3c(c2)COB3O)c(F)c1 [5-(2-Fluoro-4-isopropyloxycarbonylphenoxy)-1-hydroxy-2,1-benzoxaborole]			O−, R	
CCCCOC(=O)c1ccc(Oc2ccc3c(c2)COB3O)nc1 [n-Butyl 6-(1-hydroxy-1,3-dihydrobenzo[c][1,2]oxaborol-5-yloxy)nicotinate]		deg-m; also recorded: O, R, D,	deg-m,; also recorded: (shrunk); also recorded: O, R,	Schistosomula phenotype day 2: (strong); also recorded: O, deg-m
CC(C)COc1nc(Oc2ccc3c(c2)COB3O)ccc1C#N [6-(1-Hydroxy-1,3-dihydro-benzo[c][1,2]oxaborol-5-yloxy)-2-isobutoxy-nicotinonitrile]			R (R=round) and O−	Schistosomula phenotype 24 h: R− and O−
COCCNc1ccc(C#N)c(Oc2ccc3c(c2)COB3O)n1 [2-(1-Hydroxy-1,3-dihydro-benzo[c][1,2]oxaborol-5-yloxy)-6-(2-methoxy-ethylamino)-nicotinonitrile]		O+ R and Partial D (Partial D=partial killing of worm population)		
CCOC(=O)c1ccc(Oc2ccc3c(c2)COB3O)nc1OCC [Ethyl 2-ethoxy-6-(1-hydroxy-1,3-dihydrobenzo[c][1,2]oxaborol-5-yloxy)nicotinate]		R, (R=round); also recorded: Partial D (Partial D=partial killing of worm population)	O, (O=overactive); also recorded: deg-m	Schistosomula phenotype day 2: (shrunk)
N#Cc1ccc(Oc2ccc3c(c2)COB3O)c(OCC2CCCC2)c1 [3-(Cyclopentylmethoxy)-4-(1-hydroxy-1,3-dihydrobenzo[c][1,2]oxaborol-5-yloxy)benzonitrile]			R O− and Deg-M D	
N#Cc1ccc(Oc2ccc3c(c2)COB3O)nc1N1CCCC1 [6-(1-Hydroxy-1,3-dihydro-benzo[c][1,2]oxaborol-5-yloxy)-2-pyrrolidin-1-yl-nicotinonitrile]	O+ and Deg-M (Deg-M=worms in morphological disarray but still living)	R O and Partial D (Partial D=partial killing of worm population)		
N#Cc1ccc(Oc2ccc3c(c2)COB3O)nc1OCC(F)F [2-(2,2-Difluoro-ethoxy)-6-(1-hydroxy-1,3-dihydro-benzo[c][1,2]oxaborol-5-yloxy)-nicotinonitrile]	O+ and Deg-M (Deg-M=worms in morphological disarray but still living)	R O+ and Partial D (Partial D=partial killing of worm population)		
N#Cc1ccc(Oc2ccc3c(c2)COB3O)nc1NCc1ccccc1 [2-Benzylamino-6-(1-hydroxy-1,3-dihydro-benzo[c][1,2]oxaborol-5-yloxy)-nicotinonitrile]		R O and Partial D (Partial D=partial killing of worm population)		Schistosomula phenotype 24 h: O++ and some and deg-M
COCCN(C)c1nc(Oc2ccc3c(c2)COB3O)ccc1C#N [6-(1-hydroxy-1,3-dihydro-benzo[c][1,2]oxaborol-5-yloxy)-2-[(2-methoxy-ethyl)-methyl-amino]-nicotinonitrile]	O+ and Deg-M (Deg-M=worms in morphological disarray but still living)	R O and Partial D (Partial D=partial killing of worm population)		
CC(=O)NCc1ccc(Oc2ccc3c(c2)COB3O)cc1 [N-[4-(1-Hydroxy-1,3-dihydro-benzo[c][1,2]oxaborol-5-yloxy)-benzy]-acetamide]			D (D=dead)	
Cl.N#Cc1ccc(Oc2ccc3c(c2)COB3O)c(OCc2ccccn2)c1 [2-((5-Cyano-2-(1-hydroxy-1,3-dihydrobenzo[c][1,2]oxaborol-5-yloxy)phenoxy)methyl)pyridine hydrochloride]				Schistosomula phenotype 24 h (hydrochloride): R (R=round) and O++; Schistosomula phenotype day 2 (hydrochloride): O+, and M−; Schistosomula phenotype day 4 (hydrochloride): O+, and Partial D (Partial D=partial killing of worm population); Schistosomula phenotype day 6 (hydrochloride): O+, and Partial and D, R
N#Cc1ccc(Oc2ccc3c(c2)COB3O)cc1C(F)(F)F [5-(4-Cyano-3-trifluoromethylphenoxy)-1,3-dihydro-1-hydroxy-2,1-benzoxaborole]		O, (O=overactive) and some and deg-m	O, (O=overactive) and some and deg-m	Schistosomula phenotype day 2: O−, and deg-m−
N#Cc1cnc(Oc2ccc3c(c2)COB3O)cc1OCCOC1CCCCO1 (stereo not shown) [6-(1-Hydroxy-1,3-dihydro-benzo[c][1,2]oxaborol-5-yloxy)-4-[2-(tetrahydro-pyran-2-yloxy)-ethoxy]-nicotinonitrile]	O++ and deg-M	Deg-M D		Schistosomula phenotype 24 h: O++ and deg-M
